These results are taken from patent US9375000B2, “Pesticidal arylpyrrolidines” (Bayer Intellectual Property GmbH, priority 2011, dated 2016).

SMILES strings stand for the structures. Read-outs that look alike come from different tables or passages of the source.

Data set [1] can be described thus: log P by HPLC on reversed phase columns (EEC directive 79/831 Annex V.A8). The data set is classed as physicochemical. The method, then:
Calibration was done with not branched alkan2-ones (with 3 to 16 carbon atoms) with known log P-values (measurement of log P values using retention times with linear interpolation between successive alkanones). lambda-maX-values were determined using UV-spectra from 200 nm to 400 nm and the peak values of the chromatographic signals.

The subject of data set [2] is Cucurbit Leaf Beetle (Aulacophora femoralis). Kind of data set: Cucurbit leaf beetle (Aulacophora femoralis) cucumber leaf dip test. The data set is classed as in vivo. As to conditions: after 7 days. The essentials:
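Cucumber leaves dipped in compound formulated with DMF and polyoxyethylene alkyl phenyl ether, diluted in water, with ammonium salt or ammonium salt plus penetration enhancer at 1000 ppm added if necessary; dried leaves placed on sterilized soil with five second-instar larvae. Kept at 25° C; larval mortality counted after 7 days.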

For data set [3], the system named is Tobacco Cutworm (Spodoptera litura) Larvae. Kind of data set: Tobacco cutworm (Spodoptera litura) larvae, sweet potato leaf dip test. In kind it is in vivo. Particulars: dead larvae after 7 days. In outline:
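Sweet potato leaves were dipped in DMF/emulsifier test solution at the set concentration and air-dried. Ten third-instar S. litura larvae were placed per dish at 25 °C, with fresh leaves added on days 2 and 4. Mortality was counted on day 7, given as % insecticidal activity averaged over two dishes.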

Data set [4] relates to Two-Spotted Spider Mite (Tetranychus urticae). As to the kind of experiment: Two-spotted spider mite (Tetranychus urticae) spray test on kidney bean. In kind it is in vivo. As to conditions: after 7 days. The essentials:
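Kidney bean plants at the two-leaf stage carried 50-100 adult mites and were sprayed one day later with compound in DMF/polyoxyethylene alkyl phenyl ether diluted in water. Ammonium salt and penetration enhancer at 1000 ppm were added if needed. Acaricidal activity (% mites killed) was scored after 7 days in a greenhouse.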

In the next data set the test system is Thrips palmi. Kind of data set: Thrips palmi spray test (THRIPL). In kind it is in vivo. Particulars: after 6 days. The essentials:
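Cucumber seedlings sprayed with compound formulated in DMF/polyoxyethylene alkyl phenyl ether and diluted in water, ammonium salt ± penetration enhancer at 1000 ppm added if needed. About 100 T. palmi eggs attached, plants held caged at 100% humidity, 23 °C. Percent activity scored from feeding damage after 6 days, 100 = no damage, 0 = as untreated.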

Data set [5] has as its system Larvae of Spodoptera litura. Kind of data set: Larvae of Spodoptera litura, method using artificial feeds. In kind it is in vivo. As to conditions: artificial feed, after 7 days. In outline:
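Compound formulated in dimethylformamide with polyoxyethylene alkyl phenyl ether emulsifier, water-diluted and poured onto artificial diet. Five 3rd-instar Spodoptera litura larvae per cup, held at 25° C and 50-60% humidity. Mortality after 7 days expressed as pesticidal ratio.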

The subject of a further data set is Musca domestica. As to the kind of experiment: Test against Musca domestica. In kind it is in vivo. Particulars: application rate 100 ppm; after 2 days. The method, then: (§1) Solvent: dimethyl sulfoxide
To produce a suitable preparation of active compound, 10 mg of active compound are dissolved in 0.5 ml solvent, and the concentrate is diluted with water to the desired concentration. Prior to the assay, a piece of kitchen sponge is soaked with a mixture of sugar and compound solution and placed into a container. 10 adults (Musca domestica) are placed into the container and closed with a perforated lid. After 2 days mortality in % is determined. 100% means that all the flies have been killed; 0% means that none of the flies have been killed.

For a further data set, the system named is Ctenocephalides felis. Kind of data set: Test against Ctenocephalides felis (CTECFE), blood feeding. As to conditions: application rate 100 ppm in cattle blood; after 2 days. The data set is classed as in vivo. The method, then: as §1
To produce a suitable preparation of active compound, 10 mg of active compound are dissolved in 0.5 ml solvent, and the concentrate is diluted with cattle blood to the desired concentration. Approximately 20 adult unfed (Ctenocepahlides felis) are placed in flea chambers. The blood chamber, sealed with parafilm on the bottom, are filled with cattle blood supplied with compound solution and placed on top of the flea chamber, so that the fleas are able to suck the blood. The blood chamber is heated to 37° C. whereas the flea chamber is kept at room temperature.
After 2 days mortality in % is determined. 100% means that all the fleas have been killed; 0% means that none of the fleas have been killed.

The test system of data set [6] is green peach aphids (Myzus persicae). As to the kind of experiment: Myzus persicae spray test (MYZUPE). The data set is classed as in vivo. Particulars: after 6 days. The method, then:
Unless not mentioned otherwise, the test solutions were prepared as follows:
Solvent: 3 parts by weight Dimethylformamide
Emulsifier: 1 part by weight Polyoxyethylene alkyl phenyl ether
In order to make an appropriate formulation of an active compound, 1 part by weight of the active compound is mixed with the above mentioned amount of solvent and emulsifier and the mixture is diluted with water to a prescribed concentration. Ammonium salt or ammonium salt and penetration enhancer in a dosage of 1000 ppm are added to the desired concentration if necessary.
1 day before treatment, green peach aphids (Myzus persicae) are inoculated onto the testing plants, about 50 heads per leaf, 100 for 1 pot. A paper label is placed on each pot. Solutions are sprayed directly onto both insects and plants. After drying, the pots are placed in the greenhouse at 20° C.-25° C. After 6 days mortality in % is determined. An insecticidal activity of 100% means that all aphids were killed, whereas an insecticidal activity of 0% means that no aphid was killed.

The test system of data set [7] is adult engorged female Boophilus microplus ticks. As to the kind of experiment: Test against Boophilus microplus (dip). In kind it is in vivo. As to conditions: application rate 100 ppm; dip; after 7 days. As for the experimental part: as §1
To produce a suitable preparation of active compound, 10 mg of active compound are dissolved in 0.5 ml solvent, and the concentrate is diluted with water to the desired concentration. Eight to ten adult engorged female Boophilus microplus ticks are placed in perforated plastic beakers and immersed in aqueous compound solution for one minute. Ticks are transferred to a filter paper in a plastic tray. Egg deposition of fertile eggs is monitored after. After 7 days mortality in % is determined. 100% means that all the ticks have been killed; 0% means that none of the ticks have been killed.

The mark [8] stands for this setting: active compound concentration 20 ppm.
Where [9] appears, read: active compound concentration 4 ppm.
[10] abbreviates: active compound concentration 100 ppm.

`O=C(NCc1ccc(N2CCC(c3cc(Cl)cc(Cl)c3)(C(F)(F)F)C2O)cc1F)C1CC1` (mixture of isomers) [A1-99]: the “log P” value in data set [1] is reported as 3.47. Further, the insecticidal activity in [2] (setting [8]) and in data set [3] (setting [9]) was 100% in each case. For the same compound, the acaricidal activity in data set [4] (setting [9]) came to 90%.
Turning to `COCCC(=O)NCc1ccc(N2CCC(c3cc(C(F)(F)F)cc(C(F)(F)F)c3)(C(F)(F)F)C2O)nc1Br` (mixture of isomers) [A3-162], in data set [1], the logP is 3.71. The same compound showed an insecticidal activity in data set [3] (setting [8]) of 100%. Besides, in data set [4] (setting [8]), the acaricidal activity worked out at 90%.
Consider `O=C(NCc1ccc(N2CCC(c3cc(Cl)c(Cl)c(Cl)c3)(C(F)(F)F)C2O)cc1Cl)C1CC1` (centres unmarked) [A1-16], for which the “insecticidal activity (by feeding damage degree)” value in the data set with Thrips palmi (setting [10]) is 98%. Moreover, the insecticidal activity in data set [2] (setting [9]) was determined as 100%. Moreover, the “insecticidal activity (pesticidal ratio)” value in data set [5] (setting [9]) was found to be 100%. The “activity (mortality)” value was 80% in the data set on Musca domestica and 90% in the data set with Ctenocephalides felis. In data set [4] (setting [9]), this compound displayed an acaricidal activity of 100%. In data set [6] (setting [10]), the “insecticidal activity (mortality)” value came to 100%.
With `O=C(CC(F)(F)F)NCc1ccc(N2CCC(c3cc(Cl)c(Cl)c(Cl)c3)(C(F)(F)F)C2O)cc1Cl` (centres unmarked) [A1-18], the “insecticidal activity (by feeding damage degree)” value in the data set on Thrips palmi (setting [10]) is reported as 90%. This compound also displayed an insecticidal activity in [2] (setting [9]) of 100%. The “insecticidal activity (pesticidal ratio)” value in [5] (setting [9]) was found to be 100%. For the same compound, the acaricidal activity in [4] (setting [9]) came to 100%. Besides, the “insecticidal activity (mortality)” value in data set [6] (setting [10]) came to 100%.
As for `CN(C)C(=O)NCc1ccc(N2CCC(c3cc(Cl)cc(Cl)c3)(C(F)(F)F)C2O)cc1C(F)(F)F` (centres unmarked) [A1-368], the “log P” value in data set [1] (HPLC on reversed phase columns) is on record as 3.81. The compound also came in with an acaricidal activity in [4] (setting [10]) of 100%.
For the compound `CCNC(=O)NCc1ccc(N2CCC(c3cc(Cl)cc(Cl)c3)(C(F)(F)F)C2O)cc1C(F)(F)F` (centres unmarked) [A1-369], the lipophilicity (log P) in data set [1] (HPLC on reversed phase columns) is reported as 3.73. Also, the insecticidal activity in data set [3] (setting [9]) is reported as 100%. Also, the acaricidal activity in data set [4] (setting [10]) was 100%.
`O=C(NCc1ccc(N2CCC(c3cc(Cl)c(Cl)c(Cl)c3)(C(F)(F)F)C2O)nc1Cl)C1CC1` (centres unmarked) [A3-104]: the “insecticidal activity (by feeding damage degree)” value in the data set with Thrips palmi (setting [8]) is on record as 98%. The insecticidal activity in data set [2] (setting [8]) and in data set [3] (setting [9]) was 100% throughout. The compound also registered an acaricidal activity in data set [4] (setting [9]) of 100%. The “insecticidal activity (mortality)” value in [6] (setting [8]) stood at 100%.
In the case of `O=C(NCc1ccc(N2CCC(c3cc(C(F)(F)F)cc(C(F)(F)F)c3)(C(F)(F)F)C2O)nc1Cl)C1CC1` (centres unmarked) [A3-148], the “insecticidal activity (by feeding damage degree)” value with Thrips palmi (setting [10]) is on record as 90%. Moreover, the logP in [1] worked out at 3.96. The same compound registered an insecticidal activity in data set [2] (setting [9]) of 100%. Besides, the “insecticidal activity (pesticidal ratio)” value in [5] (setting [9]) was determined as 100%.
As to `O=C(NCc1cc(F)c(N2CCC(c3cc(C(F)(F)F)cc(C(F)(F)F)c3)(C(F)(F)F)C2O)nc1Cl)C1CC1` (centres unmarked) [A3-381], the “insecticidal activity (by feeding damage degree)” value in the data set with Thrips palmi (setting [10]) is reported as 98%. Moreover, the insecticidal activity in data set [2] (setting [9]) and in [2] (setting [8]) was 100% each time. Further, the “insecticidal activity (pesticidal ratio)” value in data set [5] (setting [8]) came to 100%. In data set [7], the “activity (mortality)” value came to 80%. The “insecticidal activity (mortality)” value in [6] (setting [10]) is 98%.
Regarding `CCC(=O)NCc1cnc(N2CCC(c3cc(Cl)c(F)c(Cl)c3)(C(F)(F)F)C2O)nc1C(F)(F)F` (centres unmarked) [A4-101], the “insecticidal activity (by feeding damage degree)” value in the data set with Thrips palmi (setting [8]) was 98%. Besides, the insecticidal activity in data set [2] (setting [8]) and in data set [3] (setting [9]) was 100% in each case. In addition, the acaricidal activity in data set [4] (setting [9]) was determined as 100%. Moreover, the “insecticidal activity (mortality)” value in data set [6] (setting [8]) worked out at 100%.
